Assays:
Assay type in all cases: cell-based
HPAC cells = experiment: HPAC 3D proliferation assay (CellTiter-Glo 3D); conditions: Homo sapiens, 168 h, 3D culture, 7 days, read-out: HPAC CTG IC50
Description: (§1) Compound potencies were assessed in proliferation assays conducted with SW620 and HPAC cell lines grown in 3D cultures. Cells were seeded into 96- or 384-well ultra-low attachment plates at 3000 or 1000 cells/well, respectively, in culture medium (RPMI-1640, 10% FBS, 2 mM L-glutamine). The plated cells were centrifuged briefly, allowed to rest for 30 minutes under ambient conditions, and cultured overnight at 37° C./5% C02 to initiate the formation of spheroids. Compound dilutions were prepared across a range of concentrations in DMSO and added to the appropriate wells of the assay plates with a 333-fold dilution into the culture medium. The plates were further incubated for 7 days. The quantity of viable cells was assessed using CellTiter-Glo 3D Cell Viability Assay (Promega). The detection reagent penetrates the spheroids and lyses the cells. The released ATP that was detected with luciferase and a luciferase substrate to generate a luminescent readout. […] The data points were fit to a 4-parameter logistic equation to determine IC50 values.

pERK in SW620 cells = experiment: SW620 pERK assay; conditions: Homo sapiens, SW-620, SW620
H1975 cells = experiment: H1975 CTG proliferation assay; conditions: Homo sapiens, NCI-H1975, H1975
SW620 cells = experiment: SW620 3D proliferation assay (CellTiter-Glo 3D); conditions: Homo sapiens, SW-620, 168 h, SW620, 3D culture, 7 days, read-out: SW620 CTG IC50
Description: as §1

Row | IC50 (pERK in SW620 cells) | IC50 (H1975 cells) | IC50 (SW620 cells) | SMILES | IC50 (HPAC cells)
1 | 0.00234 µM |  |  | Cc1nc(N)c(Cl)c(-c2nc3c4c(nc(OC[C@@]56CCCN5C[C@H](F)C6)nc4c2F)N([C@H](C)c2cccnc2N)CCO3)c1C(F)(F)F (atropisomer, axis not shown; (aS)) [Example 601a, 4-((R)-10-((R)-1-(2-aminopyridin-3-yl)ethyl)-4-fluoro-2-(((2R,7aS)-2-fluorotetrahydro-1H-pyrrolizin-7a(5H)-yl)methoxy)-9,10-dihydro-8H-7-oxa-1,3,6,10-tetraazacyclohepta[de]naphthalen-5-yl)-3-chloro-6-methyl-5-(trifluoromethyl)pyridin-2-amine] | 0.0336 µM
2 | 0.0156 µM | 0.0802 µM | 0.0093 µM | Cc1nc(N)c(Cl)c(-c2nc3c4c(nc(OC[C@@]56CCCN5C[C@H](F)C6)nc4c2F)N([C@H](C)c2cccnc2N)CCO3)c1C(F)(F)F (single isomer, unassigned) [Example 601b] | 0.0867 µM
3 |  |  |  | Cc1c(F)c(N)cc(-c2nc3c4c(nc(OC[C@@H]5CC(F)(F)CN5C)nc4c2F)N([C@H](C)c2nccnc2N)CCO3)c1C(F)(F)F [Example 8, 3-((R)-1-(5-(5-amino-4-fluoro-3-methyl-2-(trifluoromethyl)phenyl)-2-(((S)-4,4-difluoro-1-methylpyrrolidin-2-yl)methoxy)-4-fluoro-8,9-dihydro-10H-7-oxa-1,3,6,10-tetraazacyclohepta[de]naphthalen-10-yl)ethyl)pyrazin-2-amine] | ≥ 2 µM
4 |  |  |  | C[C@H](c1cccnc1N)N1CCOc2nc(-c3cccc4sc(N)nc34)c(F)c3nc(OC[C@@]45CCCN4C[C@H](F)C5)nc1c23 [Example 24, 4-(10-((R)-1-(2-aminopyridin-3-yl)ethyl)-4-fluoro-2-(((2R,7aS)-2-fluorotetrahydro-1H-pyrrolizin-7a(5H)-yl)methoxy)-9,10-dihydro-8H-7-oxa-1,3,6,10-tetraazacyclohepta[de]naphthalen-5-yl)benzo[d]thiazol-2-amine] | ≥ 2 µM

Source: patent US20260137699A1, “OXAZEPINE COMPOUNDS COMPRISING A 6-AZA MOIETY AND USES THEREOF” (Genentech, Inc., priority 2022, published 2026)
